Legend:
[1] = biological target: T1, PfCHA (Plasmodium falciparum, UniProt C6KSN3); experiment: whole-cell apoaequorin luminescence of cytosolic Ca2+ (AUC […]-16 s), 96-well; type: cell-based
T1 construct: gene PF3D7_0603500; full-length ORF (about 1321 bp, approx. 49 kDa) in pGREG505 (GAL1 promoter), expressed in S. cerevisiae vcx1 knock-out (Y03825), vacuole membrane; apoaequorin co-expressed as reporter
T1 sequence (C6KSN3 1-441): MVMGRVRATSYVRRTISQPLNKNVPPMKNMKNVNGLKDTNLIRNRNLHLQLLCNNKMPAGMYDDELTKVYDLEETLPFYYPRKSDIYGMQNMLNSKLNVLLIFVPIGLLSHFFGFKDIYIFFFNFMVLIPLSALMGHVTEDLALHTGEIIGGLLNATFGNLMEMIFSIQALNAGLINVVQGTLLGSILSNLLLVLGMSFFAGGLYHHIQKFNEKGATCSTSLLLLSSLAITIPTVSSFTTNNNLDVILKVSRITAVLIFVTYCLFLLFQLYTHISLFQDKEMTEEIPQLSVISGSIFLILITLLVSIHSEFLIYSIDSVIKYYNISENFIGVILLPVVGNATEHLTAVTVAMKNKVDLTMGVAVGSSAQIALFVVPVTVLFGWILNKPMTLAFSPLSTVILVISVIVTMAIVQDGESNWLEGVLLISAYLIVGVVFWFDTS

[2] = biological target: T2, Vcx1p (VCX1) (Saccharomyces cerevisiae, UniProt Q99385); experiment: as above; type: cell-based; details: read-out: concentrations at which their transport was inhibited by 50%
T2 construct: full-length gene (1236 bp) in pGREG505 (GAL1 promoter), re-expressed in S. cerevisiae vcx1 knock-out (Y03825); apoaequorin co-expressed as reporter
T2 sequence (Q99385 1-411): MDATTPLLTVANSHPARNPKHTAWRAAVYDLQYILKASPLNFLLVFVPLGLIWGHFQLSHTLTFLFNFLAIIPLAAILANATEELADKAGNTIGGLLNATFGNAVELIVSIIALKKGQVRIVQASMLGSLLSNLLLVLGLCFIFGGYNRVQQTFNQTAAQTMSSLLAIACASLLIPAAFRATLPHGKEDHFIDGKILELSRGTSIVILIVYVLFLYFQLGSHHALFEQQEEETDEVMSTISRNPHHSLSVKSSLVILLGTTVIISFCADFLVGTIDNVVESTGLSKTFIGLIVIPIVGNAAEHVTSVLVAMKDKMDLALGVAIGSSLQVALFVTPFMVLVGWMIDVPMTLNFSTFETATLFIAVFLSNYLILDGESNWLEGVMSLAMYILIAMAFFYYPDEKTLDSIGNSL

In the case of `N=C(N)SCCc1ccc(OCc2ccc([N+](=O)[O-])cc2)cc1` [KB-R7943], the IC50 [1] is reported as 17.5 µM and the IC50 [2] is reported as 12.5 µM.
